Assay [1] concerns the target BCL-XL (Homo sapiens (Human), UniProt Q07817). As to the kind of experiment: Protein-protein interaction assay BCL-XL/Bad BH3 peptide (BCL-XL assay, TR-FRET). The class given is binding. The settings on record: read-out: BCL-XL Assay IC50 (median). The method, then: Assay 2 Protein-Protein Interaction Assay: BCL-XL/Bad BH3 Peptide (BCL-XL Assay)
The dose-dependent inhibition by the compounds described in this invention of the interaction between BCL-XL and the BH3 domain of Bad (both human) was determined using a steady state binding competition assay with time-resolved fluorescence energy transfer (TR-FRET) readout. For that purpose BCL-XL (amino acids 1-212, C-terminal fused to a hexahistidine (6×His) tag (SEQ ID 3) and a synthetic Bad BH3-derived peptide of sequence Biotin-PEG2-PEG2-[…]-Nle-[…]-amide (SEQ ID 4) served as protein receptor and tracer ligand respectively. The recombinant BCL-XL protein (expressed in E. coli) was purchased from BPS Bioscience (San Diego, Calif., USA). The Bad BH3-derived peptide can be obtained from e.g. Biosyntan (Berlin, Germany).
In the assay 11 different concentrations of each compound (0.1 nM, 0.33 nM, 1.1 nM, 3.8 nM, 13 nM, 44 nM, 0.15 μM, 0.51 μM, 1.7 μM, 5.9 μM and 20 μM) were typically measured as duplicates in the same microtiter plate. For that, 100-fold concentrated DMSO solutions were prepared by serial dilutions (1:3.4) of a 2 mM stock solution in a clear, 384-well microtiter plate (Greiner Bio-One, Frickenhausen, Germany). From there, 50 nl were transferred in a dark test plate (Greiner Bio-One, Frickenhausen, Germany). The assay was initiated by addition of 2 μL of a 2,5-fold concentrated His-BCL-XL solution (usually for a 1 nM end concentration in 5 μL reaction volume) in aqueous assay buffer [50 mM Tris/HCl pH 7, 100 mM sodium chloride (NaCl), 50 mM potassium fluoride (KF), 0.005% Tween-20, 2 mM DTT, 0.1% bovine gamma globulin (BGG)] to the compounds in the assay plate. This was followed by a 10-minute incubation step at 22° C. for pre-equilibration of the putative complex between His-BCL-XL and the compounds. After that, 3 μL of a 1.67-fold concentrated solution (in assay buffer) consisting of Bad BH3-derived peptide (1 nM end concentration) and TR-FRET detection reagents [1.67 nM anti-His-Eu cryptate and 1.67 nM streptavidin-XL665 (both from Cisbio Bioassays, Codolet, France)], were added.
The mixture was incubated in the dark for one hour at 22° C. and then overnight at 4° C. The formation of BCL-XL/Bad complexes was determined by measuring the resonance energy transfer of the anti-His- Eu-cryptate antibody to the streptavidin-XL665 present in the reaction. For that purpose, the fluorescence emission at 620 nm and 665 nm after excitation at 330-350 nm was measured in a TR-FRET measuring instrument, for instance a Rubystar or a Pherastar (both from BMG Lab Technologies, Offenburg, Germany) or a Viewlux (Perkin-Elmer). The ratio of the emission at 665 nm and at 622 nm was used as indicator of the amount of BCL-XL/Bad complexes present.
The resulting data (ratio) were normalized, taking 0% inhibition as the mean value of control measurements (usually 32 data points) where all reagents were included. In this case 50 nl DMSO were used instead of compounds. […] IC50 values were determined by regression analysis based on a 4 parameter equation (minimum, maximum, IC50, Hill; Y=Max+(Min−Max)/(1+(X/IC50)^Hill) using the Screener Software (Genedata).
Background: TR-FRET usually uses a lanthanide donor and a delayed reading to cut background.

The test system of assay [2] is HMC-1-8 cells. As to the kind of experiment: Antiproliferation assay HMC-1-8 (Assay 7). The class given is cell-based. The procedure, abridged:
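72 h antiproliferation, 37 °C, CellTiter-Glo luminescence. Day 0 plate = CI; DMSO = C0; IC50 calculated from these.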

Where [3] appears, read: read-out: Antiproli HMC-1-8 IC50 median; 72 h, CellTiter-Glo.

Molecules are shown by their SMILES. Counter-ions that a name gives are not always drawn. Like-named read-outs stand apart in the source and are kept apart here. A value given as a limit tells only on which side of the number the result lay.

The IC50 is the concentration that inhibits the measured activity by half.

BCL-XL, sequence (Q07817 1-212): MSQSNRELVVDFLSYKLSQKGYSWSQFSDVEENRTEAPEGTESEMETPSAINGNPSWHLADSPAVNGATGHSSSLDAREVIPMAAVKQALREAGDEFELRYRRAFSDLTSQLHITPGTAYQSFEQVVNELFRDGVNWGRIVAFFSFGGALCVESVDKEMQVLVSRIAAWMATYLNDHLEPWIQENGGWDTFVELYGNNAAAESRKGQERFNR

For the compound `CCc1c2c(nn1C)C(C(F)(F)F)OCCCCn1c(C(=O)O)c(CCCOc3cccc4ccccc34)c3ccc(Cl)c-2c31` (single isomer, unassigned; enantiomer 1) [Example 33, (+)-4-chloro-3-ethyl-2-methyl-7-{3-[(naphthalen-1-yl)oxy]propyl}-15-(trifluoromethyl)-2,10,11,12,13,15-hexahydropyrazolo[4′,3′:9,10][1,6]oxazacycloundecino[8,7,6-hi]indole-8-carboxylic Acid—N-ethylethanamine Salt (Enantiomer 1)], the IC50 is above 20 µM in assay [1] and 15 µM in assay [2] (72 h, read-out: Antiproli HMC-1-8 IC50 median, 72 h, CellTiter-Glo).
Turning to `Cc1c2c(nn1C)C(CCN1CCOCC1)OCCCCn1c(C(=O)O)c(CCCOc3cccc4cc(F)ccc34)c3ccc(Cl)c-2c31` (single isomer, unassigned; enantiomer 2) [Example 18, 4-chloro-7-{3-[(6-fluoronaphthalen-1-yl)oxy]propyl}-2,3-dimethyl-15-[2-(morpholin-4-yl)ethyl]-2,10,11,12,13,15-hexahydropyrazolo[4′,3′:9,10][1,6]oxazacycloundecino[8,7,6-hi]indole-8-carboxylic Acid (Enantiomer 2)], the IC50 in assay [1] was above 20 µM; in assay [2] (72 h, CellTiter-Glo, read-out: Antiproli HMC-1-8 IC50 median) it was 12.5 µM.
For the compound `CCC1OCCCCn2c(C(=O)O)c(CCCOc3cccc4ccccc34)c3ccc(Cl)c(c32)-c2c1nn(C)c2C` (single isomer, unassigned; enantiomer 2) [Example 30, (−)-4-chloro-15-ethyl-2,3-dimethyl-7-{3-[(naphthalen-1-yl)oxy]propyl}-2,10,11,12,13,15-hexahydropyrazolo[4′,3′:9,10][1,6]oxazacycloundecino[8,7,6-hi]indole-8-carboxylic Acid—N-ethylethanamine Salt (Enantiomer 2)], the half-maximal inhibitory concentration (IC50) in assay [1] was above 20 µM; in assay [2] (setting [3]), 22.6 µM.
As to `Cc1c2c(nn1C)C(C1CC1)OCCCCn1c(C(=O)O)c(CCCOc3cccc4ccccc34)c3ccc(Cl)c-2c31` (single isomer, unassigned; enantiomer 2) [Example 36, (−)-4-chloro-15-cyclopropyl-2,3-dimethyl-7-{3-[(naphthalen-1-yl)oxy]propyl}-2,10,11,12,13,15-hexahydropyrazolo[4′,3′:9,10][1,6]oxazacycloundecino[8,7,6-hi]indole-8-carboxylic Acid N-ethylethanamine Salt (Enantiomer 2)], the results for the IC50 in assay [1] and in assay [2] (setting [3]) were 13.8 µM and 19 µM, respectively.
In the same order, the values of `CCc1c2c(nn1C)C(CCOC)OCCCCn1c(C(=O)O)c(CCCOc3cccc4cc(F)ccc34)c3ccc(Cl)c-2c31` (single isomer, unassigned; enantiomer 2) [Example 43, (−)-4-chloro-3-ethyl-7-{3-[(6-fluoronaphthalen-1-yl)oxy]propyl}-15-(2-methoxyethyl)-2-methyl-2,10,11,12,13,15-hexahydropyrazolo[4′,3′:9,10][1,6]oxazacycloundecino[8,7,6-hi]indole-8-carboxylic Acid—N-ethylethanamine Salt (Enantiomer 2)] are 17.2 µM and 26.5 µM.
Consider `CCc1c2c(nn1C)C(CCO)OCCCCn1c(C(=O)O)c(CCCOc3cccc4cc(F)ccc34)c3ccc(Cl)c-2c31` (single isomer, unassigned; enantiomer 2) [Example 46, (−)-4-chloro-3-ethyl-7-{3-[(6-fluoronaphthalen-1-yl)oxy]propyl}-15-(2-hydroxyethyl)-2-methyl-2,10,11,12,13,15-hexahydropyrazolo[4′,3′:9,10][1,6]oxazacycloundecino[8,7,6-hi]indole-8-carboxylic Acid (Enantiomer 2)], for which the IC50 in assay [1] is above 20 µM; in assay [2] (72 h, CellTiter-Glo; read-out: Antiproli HMC-1-8 IC50 median) it was above 33 µM.

Source of the values: US11440923B2, “Substituted macrocyclic indole derivatives” (Bayer Aktiengesellschaft, priority 2017, dated 2022).
